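Grown in 96-well plates, cells were treated for 48 hours with each compound at five concentrations. Insufficient inhibition: endpoint recorded as highest concentration tested. GI50: concentration for 50% inhibition of growth.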 Calls of active or inactive are those of the source. Rule as the data show it: active = GI50 up to about 1.1 µM and inactive = higher.
What was measured:
Experiment in all cases: growth of human tumour cells (NCI), 48 h
[1] = tested on: UACC-257
[2] = tested on: EKVX
[3] = tested on: UACC-62
[4] = tested on: HL-60
[5] = tested on: OVCAR-3
[6] = tested on: OVCAR-5
[7] = tested on: SK-MEL-28
[8] = tested on: Hs-578T
[9] = tested on: OVCAR-4
[10] = tested on: LOX IMVI
[11] = tested on: K562
[12] = tested on: M14
[13] = tested on: Malme-3M
[14] = tested on: BT-549
[15] = tested on: NCI-H23
[16] = tested on: SNB-19
[17] = tested on: NCI-H460
[18] = tested on: UO-31
[19] = tested on: RPMI-8226
[20] = tested on: IGROV-1
[21] = tested on: HCT-116
[22] = tested on: COLO 205
[23] = tested on: HCT-15
[24] = tested on: HCC 2998
[25] = tested on: SN12C
[26] = tested on: SNB-75
[27] = tested on: KM12
[28] = tested on: HOP-62
[29] = tested on: MCF7
[30] = tested on: MDA-MB-231
[31] = tested on: CAKI-1
[32] = tested on: PC-3
[33] = tested on: U-251
[34] = tested on: HOP-92
[35] = tested on: ACHN
[36] = tested on: 786-0
[37] = tested on: SK-MEL-5
[38] = tested on: A498
[39] = tested on: SW-620
[40] = tested on: SF-295
[41] = tested on: DU-145
[42] = tested on: OVCAR-8
[43] = tested on: HT-29
[44] = tested on: SF-268
[45] = tested on: SF-539
[46] = tested on: T47D
[47] = tested on: NCI-H226
[48] = tested on: A549
[49] = tested on: MDA-MB-435
[50] = tested on: CCRF-CEM
[51] = tested on: SK-MEL-2
[52] = tested on: RXF 393
[53] = tested on: SK-OV-3
[54] = tested on: TK-10
[55] = tested on: MOLT-4
[56] = tested on: MDA-N
[57] = tested on: NCI-H522
[58] = tested on: NCI/ADR-RES

O=C(/C=C/C(Cl)(Cl)Cl)Nc1ccc(Cl)cc1
GI50 [1]: 18300 nM (inactive)
GI50 [2]: 5020 nM (inactive)
GI50 [3]: 7640 nM (inactive)
GI50 [4]: 1480 nM (inactive)
GI50 [5]: 6890 nM (inactive)
GI50 [6]: 13500 nM (inactive)
GI50 [7]: 18300 nM (inactive)
GI50 [8]: 25400 nM (inactive)
GI50 [9]: 1820 nM (inactive)
GI50 [10]: 800 nM (active)
GI50 [11]: 1620 nM (inactive)
GI50 [12]: 4620 nM (inactive)
GI50 [13]: 5370 nM (inactive)
GI50 [14]: 17200 nM (inactive)
GI50 [15]: 3360 nM (inactive)
GI50 [16]: 17700 nM (inactive)
GI50 [17]: 14200 nM (inactive)
GI50 [18]: 698 nM (active)
GI50 [19]: 2090 nM (inactive)
GI50 [20]: 452 nM (active)
GI50 [21]: 4730 nM (inactive)
GI50 [22]: 2190 nM (inactive)
GI50 [23]: 3560 nM
GI50 [24]: 6440 nM (inactive)
GI50 [25]: 7240 nM (inactive)
GI50 [26]: 3690 nM (inactive)
GI50 [27]: 2050 nM (inactive)
GI50 [28]: 4940 nM (inactive)
GI50 [29]: 17500 nM (inactive)
GI50 [30]: 2490 nM (inactive)
GI50 [31]: 800 nM (active)
GI50 [32]: 12500 nM (inactive)
GI50 [33]: 11600 nM (inactive)
GI50 [34]: 2120 nM (inactive)
GI50 [35]: 2300 nM (inactive)
GI50 [36]: 1550 nM (inactive)
GI50 [37]: 11100 nM (inactive)
GI50 [38]: 13900 nM (inactive)
GI50 [39]: 3380 nM (inactive)
GI50 [40]: 12400 nM (inactive)
GI50 [41]: 16900 nM (inactive)
GI50 [42]: 14900 nM (inactive)
GI50 [43]: 1940 nM (inactive)
GI50 [44]: 3230 nM (inactive)
GI50 [45]: 1990 nM (inactive)
GI50 [46]: 2150 nM (inactive)
GI50 [47]: 15100 nM (inactive)
GI50 [48]: 3990 nM (inactive)
GI50 [49]: 3740 nM (inactive)
GI50 [50]: 1560 nM (inactive)
GI50 [51]: 8590 nM (inactive)
GI50 [52]: 3010 nM (inactive)
GI50 [53]: 18900 nM (inactive)
GI50 [54]: 2350 nM (inactive)
GI50 [55]: 1640 nM (inactive)
GI50 [56]: 3440 nM (inactive)
GI50 [57]: 514 nM (active)
GI50 [58]: 2450 nM (inactive)

CCCc1c(Cl)nc(Cl)nc1Cl
GI50 [1]: 2130 nM (inactive)
GI50 [2]: > 10000 nM (inactive)
GI50 [3]: 822 nM (active)
GI50 [4]: 480 nM (active)
GI50 [5]: 1010 nM (active)
GI50 [6]: 1540 nM (inactive)
GI50 [7]: 336 nM (active)
GI50 [8]: 3520 nM (inactive)
GI50 [9]: 10200 nM (inactive)
GI50 [10]: < 10 nM (active)
GI50 [11]: 72.3 nM (active)
GI50 [12]: 192 nM (active)
GI50 [13]: < 20.8 nM (active)
GI50 [14]: 377 nM (active)
GI50 [15]: 428 nM (active)
GI50 [16]: 4710 nM (inactive)
GI50 [17]: 1200 nM (inactive)
GI50 [18]: 25400 nM (inactive)
GI50 [19]: 432 nM (active)
GI50 [20]: 787 nM (active)
GI50 [21]: 546 nM (active)
GI50 [22]: 252 nM (active)
GI50 [23]: 327 nM
GI50 [24]: 5550 nM (inactive)
GI50 [25]: 467 nM (active)
GI50 [26]: 9180 nM (inactive)
GI50 [27]: 3610 nM (inactive)
GI50 [28]: 2430 nM (inactive)
GI50 [29]: 1730 nM (inactive)
GI50 [30]: 425 nM (active)
GI50 [32]: 2750 nM (inactive)
GI50 [33]: 1220 nM (inactive)
GI50 [34]: 2650 nM (inactive)
GI50 [35]: 1640 nM (inactive)
GI50 [36]: 247 nM (active)
GI50 [37]: 59.4 nM (active)
GI50 [38]: 19500 nM (inactive)
GI50 [39]: 160 nM (active)
GI50 [40]: 4160 nM (inactive)
GI50 [41]: 5470 nM (inactive)
GI50 [42]: 1050 nM (active)
GI50 [43]: 175 nM (active)
GI50 [44]: 1290 nM (inactive)
GI50 [45]: 2540 nM (inactive)
GI50 [46]: 3080 nM (inactive)
GI50 [47]: 22.2 nM (active)
GI50 [48]: 4630 nM (inactive)
GI50 [49]: 471 nM (active)
GI50 [50]: 26.5 nM (active)
GI50 [51]: 352 nM (active)
GI50 [52]: 1090 nM (active)
GI50 [53]: > 100000 nM (inactive)
GI50 [54]: 3440 nM (inactive)
GI50 [55]: 42.9 nM (active)
GI50 [56]: 211 nM (active)
GI50 [58]: 845 nM (active)

Reference: ChEMBL document CHEMBL1201862, “PubChem BioAssay data set” (2004)
